The test system of one data set is HepG2 cells. Further details: method as in PMID 34208562. The settings on record: relative to sunitinib; cited from earlier work.
The subject of another data set is HepG-2 cells. Briefly: MTT cytotoxicity assay on HepG-2 cells. In kind it is cell-based, human. The settings on record: Homo sapiens, HepG2; for IC50: MTT, 24 h treatment, mean of three experiments ± SEM. Here is the method:
(§1) Cytotoxic activity of the synthesized compounds was evaluated against HepG-2 and MCF-7 cancer cell lines using the MTT assay. The tested cell lines were obtained from the American Type Culture Collection (ATCC, […], USA) through the Tissue Culture Unit, The Egyptian Organization for Biological Products and Vaccines (Vacsera, Giza, Egypt). Indirubin, chemicals, and solvents were purchased from Sigma-Aldrich (St. Louis, MO, USA). The cells were grown on RPMI-1640 medium supplemented with 10% inactivated fetal calf serum and 50 µg/mL gentamycin. The cells were maintained at 37 °C in a humidified atmosphere with 5% CO2 and were sub-cultured two to three times per week. For antitumor assays, the tumor cell lines were suspended in the medium at concentration 5 × 10^4 cell/well in Corning® 96-well tissue culture plates (Corning, Corning, NY, USA), then incubated for 24 h. The tested molecules were then added to 96-well plates (six replicates) to achieve six concentrations for each compound. Six vehicle controls with media or 0.5% DMSO were run for each 96-well plate as a control. After incubating for 24 h, the numbers of viable cells were determined by the MTT test. Briefly, the media was removed from the 96 well plate and replaced with 100 µL of fresh culture RPMI 1640 medium without phenol red then 10 µL of the 12 mM MTT stock solution (5 mg of MTT in 1 mL of PBS) to each well including the untreated controls. The 96-well plates were then incubated at 37 °C and 5% CO2 for 4 h. An 85 µL aliquot of the media was removed from the wells, and 50 µL of DMSO was added to each well, mixed thoroughly with the pipette, and incubated at 37 °C for 10 min. Then, the optical density was measured at 590 nm with the microplate reader (SunRise, TECAN, Inc., Morrisville, NC, USA) to determine the number of viable cells, and the percentage of viability was calculated as […], where ODt is the mean optical density of wells treated with the tested sample and ODc is the mean optical density of untreated cells. The relation between surviving cells and drug concentration was plotted to obtain the survival curve of each tumor cell line after treatment with the specified compound. […] Each concentration was repeated four times.
Background: Tetrazolium dyes change colour on reduction, which living cells bring about.

A further data set relates to MCF-7 cells. Briefly: MTT cytotoxicity assay on MCF-7 cells. In kind it is cell-based. The following applies: Homo sapiens, MCF7. Here is the method: as §1
Another data set deals with T1, EGFR (Homo sapiens, UniProt P00533).
T1 construct: purchased BPS Bioscience 40721
T1 sequence (P00533 25-1210): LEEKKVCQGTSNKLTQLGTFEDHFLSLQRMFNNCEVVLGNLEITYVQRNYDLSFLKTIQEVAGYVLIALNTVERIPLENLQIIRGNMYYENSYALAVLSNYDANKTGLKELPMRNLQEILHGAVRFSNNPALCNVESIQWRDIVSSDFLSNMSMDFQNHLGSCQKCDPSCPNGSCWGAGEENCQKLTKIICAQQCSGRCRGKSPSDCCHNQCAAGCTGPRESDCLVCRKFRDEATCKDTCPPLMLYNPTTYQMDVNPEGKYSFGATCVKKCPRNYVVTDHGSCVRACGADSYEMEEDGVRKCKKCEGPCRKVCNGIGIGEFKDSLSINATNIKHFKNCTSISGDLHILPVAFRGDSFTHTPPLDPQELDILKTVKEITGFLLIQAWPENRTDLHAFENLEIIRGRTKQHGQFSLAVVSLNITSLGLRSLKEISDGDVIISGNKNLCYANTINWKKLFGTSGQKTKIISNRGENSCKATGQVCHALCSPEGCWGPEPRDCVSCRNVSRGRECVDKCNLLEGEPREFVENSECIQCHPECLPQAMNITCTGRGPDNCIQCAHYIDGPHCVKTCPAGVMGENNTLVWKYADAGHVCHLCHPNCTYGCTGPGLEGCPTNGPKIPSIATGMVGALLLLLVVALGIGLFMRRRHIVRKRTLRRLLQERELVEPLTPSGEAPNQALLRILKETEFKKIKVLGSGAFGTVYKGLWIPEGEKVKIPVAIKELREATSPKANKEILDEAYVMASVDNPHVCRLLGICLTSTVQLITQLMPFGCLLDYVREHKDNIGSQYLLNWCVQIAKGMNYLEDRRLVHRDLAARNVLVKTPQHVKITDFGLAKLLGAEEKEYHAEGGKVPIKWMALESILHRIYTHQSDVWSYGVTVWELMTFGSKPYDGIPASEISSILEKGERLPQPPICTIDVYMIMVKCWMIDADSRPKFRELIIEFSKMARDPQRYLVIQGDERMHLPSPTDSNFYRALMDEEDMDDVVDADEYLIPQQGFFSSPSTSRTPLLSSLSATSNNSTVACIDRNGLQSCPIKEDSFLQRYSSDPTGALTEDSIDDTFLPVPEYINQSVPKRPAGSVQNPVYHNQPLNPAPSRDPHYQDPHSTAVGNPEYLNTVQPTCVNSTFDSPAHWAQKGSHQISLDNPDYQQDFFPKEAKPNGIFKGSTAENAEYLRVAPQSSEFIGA
Briefly: Kinase-Glo Plus luminescence kinase inhibition assay, EGFR. In kind it is biochemical. The following applies: 10 µM ATP, 30 °C, 40 min; mean ± SEM. How it is done: (§2) The enzyme inhibition assay for the tested molecules was performed at BPS Bioscience Corporation, San Diego, CA, USA. The following materials served as the enzyme sources, Poly (Glu, Tyr) sodium salt (4:1, Glu:Tyr) (Sigma#P7244) served as the standardized substrate, and the Kinase-Glo Plus Luminescence kinase assay kit (Promega # V3772) was used. […] Glo Plus luminescence kinase assay kits. The assays were performed using Kinase-Glo Plus luminescence (Promega Corporation, Madison, WI, USA).
(§3) The tested molecules 9, 20, and indurbin were diluted to 100 µL in DMSO (10%), and 5 µL of the solution was added to a 50-µL enzyme reaction until the final concentration of DMSO was 1% in all of reactions. The enzymatic reactions were conducted at 30 °C for 40 min. The reaction mixture contained enzyme substrate and respective kinases. After the enzymatic reaction, 50 µL of enzyme-Glo Plus luminescence […] assay solution (Promega) was added to each reaction, and the plate was incubated for 5 min at room temperature. The luminescence signal was measured using a BioTek Synergy 2 microplate reader. The luminescence data were analyzed using the computer software GraphPad Prism. The difference between luminescence intensities in the absence of enzyme (Lut) and in the presence of enzyme (Luc) was defined as 100% activity (Lut − Luc). […] The IC50 value was determined using GraphPad Prism software. […]
(§4) Glo Plus luminescence kinase assay kits were used in these assays. […] The assay measures kinase activity by quantitating the amount of ATP remaining in the solution following kinase reaction. […] After the enzymatic reaction, 50 µL of Kinase-Glo Plus Luminescence kinase assay solution (Promega) was added to each reaction, and the plate was incubated for 5 min at room temperature. The luminescence signal was measured using a BioTek Synergy 2 microplate reader. […] The luminescence data were analyzed using the Graphpad Prism software.
(Kinase-Glo reads ATP consumption through a luciferase reaction.)

For a further data set, the target named is T2, CDK-2 (Homo sapiens, UniProt P24941).
T2 construct: purchased BPS Bioscience 41101
Briefly: Kinase-Glo Plus luminescence kinase inhibition assay, CDK-2. In kind it is biochemical. The following applies: 10 µM ATP, 30 °C, 40 min; mean ± SEM. How it is done: as §2
The tested molecules 9, 20, and indurbin were diluted to 100 µL in DMSO (10%), and 5 µL of the solution was added to a 50-µL enzyme reaction until the final concentration of DMSO was 1% in all of reactions. The enzymatic reactions were conducted at 30 °C for 40 min. The reaction mixture contained enzyme substrate and respective kinases. After the enzymatic reaction, 50 µL of enzyme-Glo Plus luminescence […] assay solution (Promega) was added to each reaction, and the plate was incubated for 5 min at room temperature. The luminescence signal was measured using a BioTek Synergy 2 microplate reader. The luminescence data were analyzed using the computer software GraphPad Prism. The difference between luminescence intensities in the absence of enzyme (Lut) and in the presence of enzyme (Luc) was defined as 100% activity (Lut − Luc). The values of enzyme activity percentages versus five concentrations of the small molecule were then plotted using a non-linear regression analysis of the sigmoidal dose–response curve. The IC50 value was determined using GraphPad Prism software. All experiments were repeated three times (Table S3).
Glo Plus luminescence kinase assay kits were used in these assays. The assay was done at Bioscience Laboratory BPS, California, USA. The assay measures kinase activity by quantitating the amount of ATP remaining in the solution following kinase reaction. The luminescent signal from the assay was correlated with the amount of ATP present and inversely correlated with kinase activity. […] All of the enzymatic reactions were conducted at 30 °C for 40 min. The reaction mixture contained 40 mM Tris, pH 7.4, 10 mM MgCl2, 0.1 mg/mL BSA, 1 mM DTT, 10 µM ATP, Kinase substrate, and VEGFR-2, EFGR, CDK-2 and CDK-4 enzymes. After the enzymatic reaction, 50 µL of Kinase-Glo Plus Luminescence kinase assay solution (Promega) was added to each reaction, and the plate was incubated for 5 min at room temperature. The luminescence signal was measured using a BioTek Synergy 2 microplate reader. Kinase activity assays were performed in triplicate for each concentration. The luminescence data were analyzed using the Graphpad Prism software.

For a further data set, the target named is T3, CDK-4 (Homo sapiens, UniProt P11802).
T3 construct: purchased BPS Bioscience 79674
T3 sequence (P11802 whole entry): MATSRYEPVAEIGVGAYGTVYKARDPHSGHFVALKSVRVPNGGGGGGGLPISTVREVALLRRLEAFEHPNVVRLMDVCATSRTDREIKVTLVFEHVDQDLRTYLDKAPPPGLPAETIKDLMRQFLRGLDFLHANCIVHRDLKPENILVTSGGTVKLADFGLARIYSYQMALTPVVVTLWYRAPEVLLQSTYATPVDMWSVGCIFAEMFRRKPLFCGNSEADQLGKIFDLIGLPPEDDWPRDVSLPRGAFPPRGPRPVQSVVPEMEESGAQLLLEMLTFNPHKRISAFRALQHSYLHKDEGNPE
T3 sequence (P30281 whole entry partner): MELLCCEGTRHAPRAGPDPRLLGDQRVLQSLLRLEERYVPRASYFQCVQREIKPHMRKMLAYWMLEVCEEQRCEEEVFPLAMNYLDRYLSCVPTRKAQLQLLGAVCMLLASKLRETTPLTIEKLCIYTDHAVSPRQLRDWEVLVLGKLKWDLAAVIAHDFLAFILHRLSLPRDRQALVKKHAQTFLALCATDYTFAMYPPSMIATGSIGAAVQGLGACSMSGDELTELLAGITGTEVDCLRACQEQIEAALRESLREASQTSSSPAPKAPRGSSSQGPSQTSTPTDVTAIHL
Briefly: Kinase-Glo Plus luminescence kinase inhibition assay, CDK-4. In kind it is biochemical. The settings on record: 10 µM ATP, 30 °C, 40 min; mean ± SEM. Here is the method: as §2, §3, §4

The target in a further data set is T4, VEGFR-2 (Homo sapiens, UniProt P35968).
T4 construct: purchased BPS Bioscience 40301
T4 sequence (P35968 20-1356): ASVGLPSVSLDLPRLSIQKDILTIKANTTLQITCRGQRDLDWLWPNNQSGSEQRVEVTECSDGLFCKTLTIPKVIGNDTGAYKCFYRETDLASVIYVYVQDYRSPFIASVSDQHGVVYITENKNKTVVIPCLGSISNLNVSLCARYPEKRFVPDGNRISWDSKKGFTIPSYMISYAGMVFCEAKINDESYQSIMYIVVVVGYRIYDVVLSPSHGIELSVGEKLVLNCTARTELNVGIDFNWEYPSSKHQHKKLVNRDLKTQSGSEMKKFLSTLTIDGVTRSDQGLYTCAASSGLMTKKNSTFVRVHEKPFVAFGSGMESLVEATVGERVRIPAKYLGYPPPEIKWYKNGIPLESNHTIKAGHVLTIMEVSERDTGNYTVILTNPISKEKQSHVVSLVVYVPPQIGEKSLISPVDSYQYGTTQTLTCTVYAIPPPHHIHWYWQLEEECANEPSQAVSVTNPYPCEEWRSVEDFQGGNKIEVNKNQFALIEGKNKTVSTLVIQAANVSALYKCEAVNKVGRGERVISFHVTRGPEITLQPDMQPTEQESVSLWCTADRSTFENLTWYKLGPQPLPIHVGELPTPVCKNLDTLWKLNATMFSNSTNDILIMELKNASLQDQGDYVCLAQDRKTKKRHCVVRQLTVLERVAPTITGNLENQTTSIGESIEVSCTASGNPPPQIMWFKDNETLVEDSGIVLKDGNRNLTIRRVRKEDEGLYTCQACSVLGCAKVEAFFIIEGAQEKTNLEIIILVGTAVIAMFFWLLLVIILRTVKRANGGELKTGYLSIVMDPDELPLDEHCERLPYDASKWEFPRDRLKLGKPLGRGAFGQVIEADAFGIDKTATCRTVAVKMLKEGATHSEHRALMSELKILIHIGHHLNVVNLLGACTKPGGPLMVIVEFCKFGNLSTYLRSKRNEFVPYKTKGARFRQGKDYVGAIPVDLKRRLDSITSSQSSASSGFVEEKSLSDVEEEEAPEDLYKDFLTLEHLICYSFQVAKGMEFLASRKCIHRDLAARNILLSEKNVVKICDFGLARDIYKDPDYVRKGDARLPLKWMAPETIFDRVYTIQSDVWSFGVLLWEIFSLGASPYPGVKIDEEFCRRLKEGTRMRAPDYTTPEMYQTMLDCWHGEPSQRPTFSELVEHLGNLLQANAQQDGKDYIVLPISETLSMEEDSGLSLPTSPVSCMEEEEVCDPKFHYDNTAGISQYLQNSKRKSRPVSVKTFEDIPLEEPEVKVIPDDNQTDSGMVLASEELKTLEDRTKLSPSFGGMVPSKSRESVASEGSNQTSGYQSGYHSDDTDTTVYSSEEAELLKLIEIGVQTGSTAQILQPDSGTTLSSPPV
Briefly: Kinase-Glo Plus luminescence kinase inhibition assay, VEGFR-2. In kind it is biochemical. The following applies: 10 µM ATP, 30 °C, 40 min; mean ± SEM. How it is done: as §2, §3, §4

The mark [1] stands for this setting: MTT, 24 h treatment, mean of three experiments ± SEM, read-out: IC50 (µM) MCF-7.

SMILES strings stand for the structures. Like-named read-outs stand apart in the source and are kept apart here.

For `Cc1cc(C)c(/C=C2\C(=O)Nc3ccccc32)[nH]1` [Semaxanib], the “fold more cytotoxic activity than sunitinib” value in the data set with HepG2 cells was 3 fold.
Usually IC50 stands for the midpoint of a concentration-inhibition curve. On to `O=C1Nc2ccccc2/C1=C1/Nc2ccccc2C1=O` [Ind, Indirubin, reference compound], for which the IC50 in the data set with HepG-2 cells turned out to be 6.92 ± 0.65 µM; with MCF-7 cells (setting [1]), 6.12 ± 0.35 µM; on EGFR, 175 ± 18.3 nM; at CDK-2, 45.6 ± 2.24 nM; at CDK-4, 23.6 ± 2.15 nM; at VEGFR-2 it was 126 ± 20 nM.
As usually defined, the viability is a read-out of living cells in per cent, often relative to untreated cells. For the compound `O=C1Nc2ccc(Br)cc2C1=Nc1ccc2nc[nH]c(=O)c2c1` [Compound 10, 6-(5-Bromo-2-oxo-1,2-dihydro-indol-3-ylideneamino)-3H-quinazolin-4-one], the viability at 1.25 µM with HepG-2 cells (HepG-2, 1.25 µM, Table S1) turned out to be 91.2 ± 7%; with MCF-7 cells (MCF-7, 1.25 µM, Table S2), 98.3 ± 7.4%. Besides, the viability at 2.5 µM is 87.9 ± 8.1% with HepG-2 cells (HepG-2, 2.5 µM, Table S1) and 99.1 ± 6.9% in the data set on MCF-7 cells (MCF-7, 2.5 µM, Table S2). For the same compound, the viability at 5 µM with HepG-2 cells (HepG-2, 5 µM, Table S1) stood at 83 ± 5.2%; in the data set on MCF-7 cells (MCF-7, 5 µM, Table S2), 87.2 ± 5.7%. Further, the viability at 10 µM in the data set on HepG-2 cells (HepG-2, 10 µM, Table S1) amounted to 71.4 ± 4.5%; in the data set with MCF-7 cells (MCF-7, 10 µM, Table S2), 76.5 ± 4%. For the same compound, the viability at 20 µM is 58.7 ± 4.3% in the data set with HepG-2 cells (HepG-2, 20 µM, Table S1) and 65.2 ± 2.8% in the data set on MCF-7 cells (MCF-7, 20 µM, Table S2). Besides, the viability at 40 µM with HepG-2 cells (HepG-2, 40 µM, Table S1) amounted to 35.8 ± 2.1%; with MCF-7 cells (MCF-7, 40 µM, Table S2), 55.4 ± 2.6%. Besides, the viability at 80 µM with HepG-2 cells (HepG-2, 80 µM, Table S1) worked out at 19.4 ± 1.2%; in the data set on MCF-7 cells (MCF-7, 80 µM, Table S2), 41.2 ± 2.8%. Moreover, the viability at 160 µM in the data set on HepG-2 cells (HepG-2, 160 µM, Table S1) is 14.2 ± 0.9%; in the data set with MCF-7 cells (MCF-7, 160 µM, Table S2), 25.4 ± 2.6%. Also, the half-inhibitory concentration (IC50) in the data set on HepG-2 cells is 28.1 ± 2.08 µM; in the data set on MCF-7 cells (setting [1]), more than 100 µM; in the data set with MCF-7 cells (Table S2, read-out: IC50 (µM) on MCF-7 cell line) it was 112 ± 11.2 µM.

Source of the values: article PMC11901902, “Design, Synthesis, and Cytotoxicity Evaluation of Novel Indolin-2-One Based Molecules on Hepatocellular Carcinoma HepG2 Cells as Protein Kinase Inhibitors” (Molecules, 2025).
